Some results are limits rather than exact numbers.

The nature of assay [1]: Anti-austerity antiproliferative activity against nutrient-deprived human PANC1 cells after 72 hrs in presence of 0.5% serum. It is filed as functional, cell-based. The note with it: PANC-1, 72 h.
The nature of assay [2]: Anti-austerity antiproliferative activity against human PANC1 cells after 72 hrs in presence of 10 % serum. Type of assay: cell-based. The conditions noted are these: PANC-1, 72 h.
For assay [3], the system named is HT-29. The assay is described as follows: Anti-austerity antiproliferative activity against nutrient-deprived human HT-29 cells after 72 hrs in presence of 0.5% serum. It is filed as functional, cell-based. The note with it: HT-29, 72 h.
Assay [4] concerns HT-29. The assay is described as follows: Anti-austerity antiproliferative activity against human HT-29 cells after 72 hrs in presence of 10 % serum. The note with it: HT-29, 72 h. It is filed as cell-based.

For the molecule `O=C(OC[C@@]1(O)C(=O)C=C[C@H]2[C@@H]1[C@H]1C=C[C@@H]2C(=O)[C@]1(O)COC(=O)c1ccccc1)c1ccccc1`, the 50% inhibitory concentration (IC50) – broadly, the concentration that gives 50% inhibition – in assay [1] was over 500 µM; in assay [2], 123 µM; in the assay on HT-29 [3], over 500 µM; with HT-29 [4], 109 µM.

In the case of `O=C(OC[C@@]1(O)C(=O)C=C[C@H]2[C@@H]1[C@H]1C=C[C@@H]2C(=O)[C@]1(O)COC(=O)c1ccc(Cl)cc1)c1ccc(Cl)cc1`, the half-maximal inhibitory concentration (IC50) is 77 µM in assay [1], 84 µM in assay [2], 18 µM in the assay on HT-29 [3] and 39 µM with HT-29 [4].

As for `COc1ccc(C(=O)OC[C@@]2(O)C(=O)C=C[C@H]3[C@@H]2[C@H]2C=C[C@@H]3C(=O)[C@]2(O)COC(=O)c2ccc(OC)cc2)cc1`, the IC50 in assay [1] came to 52 µM; in assay [2] it was 78 µM; in the assay with HT-29 [3] it was 22 µM; in the assay on HT-29 [4], 35 µM.

For the molecule `O=C(OC[C@@]1(O)C(=O)CC[C@H]2[C@@H]1[C@H]1CC[C@@H]2C(=O)[C@]1(O)COC(=O)c1ccccc1)c1ccccc1`, the IC50 in assay [1] was 86 µM; in assay [2], 81 µM; in the assay on HT-29 [3], 27 µM; in the assay on HT-29 [4], 39 µM.

The record behind these values is ChEMBL document CHEMBL3286232, “The enone motif of (+)-grandifloracin is not essential for 'anti-austerity' antiproliferative activity” (Bioorg Med Chem Lett, 2014).
